# According to PMC10495984, “Structural basis of IRGB10 oligomerization by GTP hydrolysis” (Frontiers in Immunology, 2023):
# T1: IRGB10 (Mus musculus, UniProt U5NFV2)
# T1 construct: recombinant from E. coli BL21(DE3), Ni-NTA purified, C-terminal LEH from plasmid kept; modelled residues 16-406
# T1 sequence (U5NFV2 1-406): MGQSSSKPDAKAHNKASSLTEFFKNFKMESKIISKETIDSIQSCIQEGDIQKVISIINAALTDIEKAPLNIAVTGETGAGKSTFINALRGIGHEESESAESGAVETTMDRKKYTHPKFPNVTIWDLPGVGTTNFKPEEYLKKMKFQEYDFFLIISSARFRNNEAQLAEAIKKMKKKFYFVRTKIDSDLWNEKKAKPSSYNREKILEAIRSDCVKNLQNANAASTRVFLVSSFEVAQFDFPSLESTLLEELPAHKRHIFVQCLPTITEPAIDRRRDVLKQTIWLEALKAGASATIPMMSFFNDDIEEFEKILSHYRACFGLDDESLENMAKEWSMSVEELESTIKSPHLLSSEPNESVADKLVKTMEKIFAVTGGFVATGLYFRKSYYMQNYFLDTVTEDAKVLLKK
# B1: Immunity-related GTPase B10 (IRGB10) (enzyme, mouse)
# chain: MGQSSSKPDAKAHNMASSLTEFFKNFKMESKIISKETIDSIQSCIQEGDIQKVISIINAALTDIEKAPLNIAVTGETGAGKSTFINALRGIGHEESESAESGAVETTKDRKKYTHPKFPNVTIWDLPGVGTTNFKPEEYLKKMKFQEYDFFLIISSARFRDNEAQLAEAIKKMKKKFYFVRTKIDSDLWNEKKAKPSSYNREKILEVIRSDCVKNLQNANAASTRVFLVSSFEVAQFDFPSLESTLLEELPAHKRHIFVQCLPTITEPAIDRRRDVLKQTIWLEALKAGASATIPMMSFFNDDIEEFEKILSHYRACFGLDDESLENMAKEWSMSVEELESTIKSPHLLSSEPNESVADKLVKTMEKIFAVTGGFVATGLYFRKSYYMQNYFLDTVTEDAKVLLKK
# notes: IRGB10, immunity-related GTPase B10, member of the mouse IRG (p47 GTPase) family; the crystal model runs from residue 16 to residue 406 and is followed by LEH from the plasmid; nucleotide-free after a 1.5 M NaCl wash on the resin; GppNHp, GTP or GDP added afterwards; also called wildtype IRGB10; nucleotide-free IRGB10; source: E. coli BL21 (DE3), purified (Ni-NTA, SEC)
# Assays:
# IRGB10 = biological target: T1, IRGB10; experiment: turbidity at […] nm, SEC and native PAGE of GTP-driven oligomerization; format: biochemical; conditions: nucleotide-free protein, MgCl2, 37 °C, pH 8.0; hydrolysis inferred from oligomerization
# [1] = biological target: the molecule itself; experiment: SEC-MALS; GDP-bound protein (endogenous E. coli GDP kept); Superdex 200 HR 10/30, 20 mM Tris-HCl pH 8.0, 150 mM NaCl
Molecule,"turbidity at 350 nm, SEC and native PAGE of GTP-driven oligomerization (IRGB10)",stoichiometry N [1]
Nc1nc2c(ncn2[C@@H]2O[C@H](COP(=O)(O)OP(=O)(O)OP(=O)(O)O)[C@@H](O)[C@H]2O)c(=O)[nH]1 [GTP],The results of these turbidity assays indicated that GTP hydrolysis caused the oligomerization of IRGB10.,
B1,,2
